Data set [1] relates to Walker 256 carcino sarcoma. As to the kind of experiment: Life span of rats bearing Walker 256 carcino sarcoma after injection from the femoral artery. Format: in vivo, female Wistar rats. The conditions noted are these: for elongated life time (T/C=test/control): control = physiological saline; for mean survival days (MST): right femoral artery, 8th or 9th day after transplantation. On the procedure:
A predetermined amount (shown in Table 1) of 3-benzoyloxy-1,3,5(10)-estratriene-17β-[4-{p-(bis(2-chloroethyl)amino)phenyl}butanoyloxy]acetate or adriamycin was added to 6.5 g of LIPIODOL® and the mixture was stirred for 15 minutes at 25° C. to obtain a solution as the injection of each active ingredient. Each solution was put into a sterilized vials.
A walker 256 carcino sarcoma (solid) of about 3 mm square in size was transplanted subcutaneously to the left brachial part and the left femoral part of each of female Wistar rats (the age of 6 weeks and one group consisting of 5 animals) of respective group.
On the 8th or 9th day after the transplantation, each of the injections prepared in Example 1 was injected into each rat of respective testing group from the right femoral artery by a catheter and physiological saline solution or 6.5 g of LIPIODOL® was injected into each rat of the control group or the LIPIODOL group in the same manner as above.
After having observed the state of the test animals, the mean survival days (MST) and the elongated life time (T/C=test/control) were calculated.

The test system of another data set is estradiol receptor. The conditions noted are these: cited from earlier work.
A further data set relates to cells. The conditions noted are these: cited from earlier work.
The next data set is described as follows: Acute toxicity in rats. Format: in vivo. The protocol:
Concerning an acute toxicity (LD50) of the present derivative, even when rats were administered orally with the maximum administrable amount (6,000 mg/kg), no death case has been observed and when rats were injected intraperitoneally in a form of sesame oil solution, its LD50 has been over 3,000 mg/kg. Accordingly, the present derivative is a medicine extremely high in safety. In a mean while, LD50 of LIPIODOL® has been 7,000 mg/kg when it was administered intravenously to rabbits.

The next data set is described as follows: Solubility in oils. It counts as physicochemical.
The conditions of data set [2]: cited from earlier work.
For data set [3] the following is noted: oral administration; cited from earlier work.

Take `COc1cccc2c1C(=O)c1c(O)c3c(c(O)c1C2=O)C[C@@](O)(C(=O)CO)C[C@@H]3O[C@H]1C[C@H](N)[C@H](O)[C@H](C)O1` [Adriamycin]: in data set [1] (10 mg in 6.5 g of LIPIODOL), the “elongated life time (T/C=test/control)” value was determined as 140.7% and the “mean survival days (MST)” value is 24.5 days. Moreover, in data set [1] (100 mg in 6.5 g of LIPIODOL), the “elongated life time (T/C=test/control)” value is under 5.7% and the “mean survival days (MST)” value is under 1 days.
As for `C[C@]12CC[C@@H]3c4ccc(O)cc4CC[C@H]3[C@@H]1CC[C@@H]2OC(=O)COC(=O)CCCc1ccc(N(CCCl)CCCl)cc1` [KM-2202, 3-hydroxy-1,3,5(10)-estratriene-17-[4-{p-(bis(2-chloroethyl)amino)phenyl}butanoyloxy]-acetate], in the data set on estradiol receptor, the “affinity to the estradiol-receptor” value was “has an affinity to the estradiol receptor”. In the data set on cells, the decomposition/conversion within cells result was “decomposed slowly into estradiol and chlorambucil within cells”; the stability in cells entry is “relatively unstable in cells”.
In general, LD50 refers to the dose expected to kill half of the subjects tested. Higher therefore signals lower toxicity. As for `C[C@]12CC[C@@H]3c4ccc(OC(=O)c5ccccc5)cc4CC[C@H]3[C@@H]1CC[C@@H]2OC(=O)COC(=O)CCCc1ccc(N(CCCl)CCCl)cc1` [present derivative, 3-benzoyloxy-1,3,5(10)-estratriene-17-[4-{p-(bis(2-chloroethyl)amino)phenyl}-butanoyloxy]acetate], in data set [1] (100 mg in 6.5 g of LIPIODOL), the “elongated life time (T/C=test/control)” value was found to be 234.3% and the “mean survival days (MST)” value is 41.0 days. Further, in “Acute toxicity in rats” (orally, maximum administrable amount 6,000 mg/kg), the “death cases (acute toxicity)” value is “no death case”. The LD50 in “Acute toxicity in rats” (rat, in vivo, ip, intraperitoneally, sesame oil solution) is over 3000 mg/kg. Moreover, in the data set “Solubility in oils” (ester of iodinated poppy oil fatty acid), the “solubility in ester of iodinated poppy oil fatty acid” value is recorded as “can be uniformly dissolved in the ester”. Moreover, in the data set “Solubility in oils” (ordinary oils), the “solubility in ordinary oils” value is “does not completely dissolve in ordinary oils”. In addition, in the data set with estradiol receptor, the “affinity to the estradiol-receptor” value is “scarcely any function as an alkylating agent and any affinity to the estradiol-receptor”. In addition, the stability in vivo entry in data set [2] is given as “relatively stable in vivo”. For the same compound, the “accumulation in cancer cells versus normal cells” value in data set [2] (in vivo) was “accumulates in larger amount in cancer cells than in normal cells”. For the same compound, the decomposition/conversion within cells entry in the data set with cells is “hydrolyzed by an enzyme”. Moreover, the “adsorption rate in intestines” value in data set [3] was “low adsorption rate”.

The record behind these values is patent US4921849A, “Injection containing 3-benzoyloxy-1,3,5(10)-estratriene-17-[4-{p-(bis(2-chloroethyl)amino)phe nyl}butanoyloxy)acetate as an active ingredient” (priority 1987, dated 1990).
